Patent US7820817B2, “Modulators of muscarinic receptors” (Vertex Pharmaceuticals Incorporated, priority 2004, dated 2010)

Test system: at least one muscarinic receptor, M1, M2, M3, M4
Assay: Muscarinic modulation activity (Table 3)
Assay type: cell-based
Parameters: key: +++: exhibited muscarinic modulation activity for at least one muscarinic receptor, M1, M2, M3, M4, at a concentration of less than 5 μM; ++: exhibited muscarinic modulation activity for at least one muscarinic receptor, M1, M2, M3, M4, at a concentration of between 30 μM and 5 μM; +: exhibited muscarinic modulation activity for at least one muscarinic receptor, M1, M2, M3, M4, at a concentration of greater than 30 μM; −: were not assayed or did not exhibit muscarinic modulation activity for at least one muscarinic receptor, M1, M2, M3, M4, at the concentration at which the assay was performed
Details: concentration at which modulation of at least one muscarinic receptor, M1, M2, M3, M4, was exhibited; CHO cells
Protocol: CHO cells expressing muscarinic receptors (M1 to M5) are grown as monolayers in tissue culture flasks at 37° C. in a humidified atmosphere containing 5% CO2 and passaged every 3-5 days. The growth media is Dulbecco's modified eagles medium (DMEM, Gibco Cat#12430-054), containing 25 mM Hepes and supplemented with Fetal Bovine Serum (Hyclone, cat#SH30071.03), 0.1 mM of MEM non-essential amino acids (GIBCO, Cat#11140-050), 1 mM MEM Sodium Pyruvate (GIBCO Cat#11360-070) and 100 units/ml of Penicillin G and 100 μg/ml of Streptomycin (GIBCO Cat#15140-122). The recombinant muscarinic receptor cell lines are grown under antibiotic pressure with media containing 25 μg/ml zeocin and 500 μg/ml G418 (M1-CHO), 4 μg/ml puromycin, 50 μg/ml zeocin and 2.5 μg/ml blasticidin (M2 and M4-CHO) or 50 μg/ml zeocin and 4 μg/ml puromycin (M3 and M5-CHO).
Cells are harvested at 80-90% confluence using Versene (GIBCO Cat#15040-066), collected by centrifugation and seeded 18-24 hrs prior to running the calcium assay at a density of 5,000-10,000 cells/well in […], clear-bottomed 384-well plates (BD Biocoat, poly-D-lysine, Cat#356663). The day of the experiment, the cells are washed with a plate washer (Bioteck Instruments, ELX 405) using bath1 buffer (140-mM NaCl, 4.5-mM KCl, 2-mM CaCl2, 1-mM MgCl2, 10-mM Hepes-Na, 10-mM Glucose, pH 7.4, with NaOH) containing 1 mM Probenecid. Next, the calcium dye Fluo-3 (25 μl/well of Fluo-3 AM at 4 μM, Molecular Probes F-1241, in Bath 1 buffer containing 1 mM Probenecid) is added to the 25 μl of Bath 1 remaining in each well after the plate wash and the dye is loaded at 37° C. in the tissue culture incubator for 60-90 min. The fluorescent dye is removed using the plate washer with Bath 1 containing 1 mM Probenecid, leaving 25 μl/well of this solution after the wash. Alternatively, cells can be loaded with the calcium indicator from Molecular Devices (Calcium 3 Assay Reagents, Cat #R7181) adding 5 μl of a 5× solution dye in Bath 1 containing 1 mM Probenecid (10 ml per dye flask cat#R7182 to generate a solution […]) to 20 μl of the same buffer. After loading for 60 min. the experiment can be run without having to remove the dye.
Compounds are prepared at a 2× fold concentration in a 96-well plate (round bottom, Costar Corning cat#3656), by reconstituting the pre-spotted compounds in bath 1 containing 1 mM probenecid. The final concentration DMSO is 0.5%, and the amount of DMSO is normalized across the assay plate. To determine an agonist action of the compounds on muscarinic receptors, the reconstituted compounds are added (25 μl compound/well) to the cell assay plate (containing 25 μl/well) using the multi-channel robotic system of the FLIPR 3 Instrument (Molecular Devices, Sunnyvale, Calif.). To determine a functional inhibitory action of the compounds on muscarinic receptors, the reconstituted compounds are added (25 μl compound/well) to the assay plate and pre-incubated for 15 min prior to adding 25 μl of Carbachol at 3× the EC80 for each muscarinic subtype. Alternatively, the compounds can be co-applied simultaneously with the agonist. In both assay modes, the fluorescence is recorded for 60 sec (excitation wavelength is […] and emission wavelength 540 nm) using the FLIPR 3 instrument.
The potency, efficacy and selectivity of the muscarinic compounds were evaluated by screening the compound activity across the whole family (M1 to M5 cells).
CHO cells expressing muscarinic receptors (M1 to M5) and containing a gene reporter system β-Lactamase) with transcriptional control mediated by calcium release (NFAT activation). See Zlokarnik, G; Negulescu, P. A.; Knapp, T. E.; Mere, L; Burres, N; Feng, L; Whitney, M; Roemer, K; Tsien, R. Y. Quantitation of transcription and clonal selection of single living cells with β-lactamase as reporter. Science, 1998 Jan. 2, 279(5347):84-8. The cells are grown as monolayers in tissue culture flasks at 37° C. in a humidified atmosphere containing 5% CO2 and passaged every 3-5 days. […]

Compound | ACTIVITY (muscarinic modulation activity)
N#Cc1cccnc1C1CCN(CC2CC3C=CC2C3)CC1 (stereo not drawn) [Compound 54, 2-[1-(5-bicyclo[2.2.1]hept-2-enylmethyl)-4-piperidyl]nicotinonitrile] | +++ (exhibited muscarinic modulation activity for at least one muscarinic receptor, M1, M2, M3, M4, at a concentration of less than 5 μM)
CCOC(=O)N1C2CCC1CC(CN1CCN(c3ncccc3C#N)CC1)C2 (stereo not drawn) [Compound 68, 3-[[4-(3-cyano-2-pyridyl)piperazin-1-yl]methyl]-8-azabicyclo[3.2.1]octane-8-carboxylic acid ethyl ester] | +++ (exhibited muscarinic modulation activity for at least one muscarinic receptor, M1, M2, M3, M4, at a concentration of less than 5 μM)
CCOC(=O)N1C2CCC1CC(N1CCN(c3ccc(C(N)=O)cn3)CC1)C2 (stereo not drawn) [Compound 36, 3-[4-(5-carbamoyl-2-pyridyl)piperazin-1-yl]-8-azabicyclo[3.2.1]octane-8-carboxylic acid ethyl ester] | +++ (exhibited muscarinic modulation activity for at least one muscarinic receptor, M1, M2, M3, M4, at a concentration of less than 5 μM)
CCOC(=O)N1C2CCC1CC(N1CCN(c3nc(Cl)cc(C(F)(F)F)c3C#N)CC1)C2 (stereo not drawn) [Compound 58, 3-[4-[6-chloro-3-cyano-4-(trifluoromethyl)-2-pyridyl]piperazin-1-yl]-8-azabicyclo[3.2.1]octane-8-carboxylic acid ethyl ester] | −
c1cc(N2CCN(C3CC4CCC3C4)CC2)ccn1 (stereo not drawn) [Compound 18, 1-norbornan-2-yl-4-(4-pyridyl)piperazine] | ++ (exhibited muscarinic modulation activity for at least one muscarinic receptor, M1, M2, M3, M4, at a concentration of between 30 μM and 5 μM)
Clc1cccc(N2CCN(CC3CC4C=CC3C4)CC2)n1 (stereo not drawn) [Compound 21, 1-(5-bicyclo[2.2.1]hept-2-enylmethyl)-4-(6-chloro-2-pyridyl)-piperazine] | −
C1=CC2CC1CC2CN1CCN(c2cnccn2)CC1 (stereo not drawn) [Compound 39, 2-[4-(5-bicyclo[2.2.1]hept-2-enylmethyl)piperazin-1-yl]pyrazine] | + (exhibited muscarinic modulation activity for at least one muscarinic receptor, M1, M2, M3, M4, at a concentration of greater than 30 μM)
C1=CC2CC1CC2CN1CCN(c2ccccn2)CC1 (stereo not drawn) [Compound 48, 1-(5-bicyclo[2.2.1]hept-2-enylmethyl)-4-(2-pyridyl)piperazine] | ++ (exhibited muscarinic modulation activity for at least one muscarinic receptor, M1, M2, M3, M4, at a concentration of between 30 μM and 5 μM)
CCOC(=O)N1C2CCC1CC(N1CCN(c3ccc(C#N)cn3)CC1)C2 (stereo not drawn) [Compound 66, 3-[4-(5-cyano-2-pyridyl)piperazin-1-yl]-8-azabicyclo[3.2.1]octane-8-carboxylic acid ethyl ester] | +++ (exhibited muscarinic modulation activity for at least one muscarinic receptor, M1, M2, M3, M4, at a concentration of less than 5 μM)
FC(F)(F)c1ccc(N2CCN(CC3CC4C=CC3C4)CC2)nc1 (stereo not drawn) [Compound 47, 1-(5-bicyclo[2.2.1]hept-2-enylmethyl)-4-[5-(trifluoromethyl)-2-pyridyl]-piperazine] | + (exhibited muscarinic modulation activity for at least one muscarinic receptor, M1, M2, M3, M4, at a concentration of greater than 30 μM)
C1=CC2CC1CC2CN1CCC(n2nnc3ccccc32)CC1 (stereo not drawn) [Compound 37, 1-[1-(5-bicyclo[2.2.1]hept-2-enylmethyl)-4-piperidyl]-1H-benzotriazole] | + (exhibited muscarinic modulation activity for at least one muscarinic receptor, M1, M2, M3, M4, at a concentration of greater than 30 μM)
Cc1ccc(C#N)c(N2CCN(C3CC4CCC3C4)CC2)n1 (stereo not drawn) [Compound 31, 6-methyl-2-(4-norbornan-2-ylpiperazin-1-yl)-nicotinonitrile] | ++ (exhibited muscarinic modulation activity for at least one muscarinic receptor, M1, M2, M3, M4, at a concentration of between 30 μM and 5 μM)
N#Cc1ccc(N2CCN(C3CC4CCC3C4)CC2)nc1 (stereo not drawn) [Compound 19, 6-(4-norbornan-2-ylpiperazin-1-yl)nicotinonitrile] | ++ (exhibited muscarinic modulation activity for at least one muscarinic receptor, M1, M2, M3, M4, at a concentration of between 30 μM and 5 μM)
CCOC(=O)N1C2CCC1CC(N1CCN(c3ccncc3)CC1)C2 (stereo not drawn) [Compound 25, 3-[4-(4-pyridyl)piperazin-1-yl]-8-azabicyclo[3.2.1]octane-8-carboxylic acid ethyl ester] | +++ (exhibited muscarinic modulation activity for at least one muscarinic receptor, M1, M2, M3, M4, at a concentration of less than 5 μM)
c1cnc(N2CCN(C3CC4CCC3C4)CC2)nc1 (stereo not drawn) [Compound 71, 2-(4-norbornan-2-ylpiperazin-1-yl)pyrimidine] | ++ (exhibited muscarinic modulation activity for at least one muscarinic receptor, M1, M2, M3, M4, at a concentration of between 30 μM and 5 μM)
N#Cc1cccnc1N1CCN(C2CC3CCC2C3)CC1 (stereo not drawn) [Compound 32, 2-(4-norbornan-2-ylpiperazin-1-yl)nicotinonitrile] | + (exhibited muscarinic modulation activity for at least one muscarinic receptor, M1, M2, M3, M4, at a concentration of greater than 30 μM)
c1ccc2c(c1)nnn2C1CCN(C2CC3CCC(C3)C2)CC1 (stereo not drawn) [Compound 9, 1-[1-(3-bicyclo[3.2.1]octyl)-4-piperidyl]-1H-benzotriazole] | −
N#Cc1cccnc1N1CCN(C2C3CC4CC(C3)CC2C4)CC1 (stereo not drawn) [Compound 2, 2-[4-(2-adamantyl)piperazin-1-yl]nicotinonitrile] | ++ (exhibited muscarinic modulation activity for at least one muscarinic receptor, M1, M2, M3, M4, at a concentration of between 30 μM and 5 μM)
N#Cc1cc(-c2ccccc2)cnc1N1CCN(CC2CC3CCC2C3)CC1 (stereo not drawn) [Compound 46, 2-[4-(norbornan-2-ylmethyl)piperazin-1-yl]-5-phenyl-nicotinonitrile] | ++ (exhibited muscarinic modulation activity for at least one muscarinic receptor, M1, M2, M3, M4, at a concentration of between 30 μM and 5 μM)
c1cnc(N2CCN(C3CC4CCC3C4)CC2)cn1 (stereo not drawn) [Compound 44, 2-(4-norbornan-2-ylpiperazin-1-yl)pyrazine] | ++ (exhibited muscarinic modulation activity for at least one muscarinic receptor, M1, M2, M3, M4, at a concentration of between 30 μM and 5 μM)
Cc1nccnc1N1CCN(CC2CC3C=CC2C3)CC1 (stereo not drawn) [Compound 17, 2-[4-(5-bicyclo[2.2.1]hept-2-enylmethyl)piperazin-1-yl]-3-methyl-pyrazine] | +++ (exhibited muscarinic modulation activity for at least one muscarinic receptor, M1, M2, M3, M4, at a concentration of less than 5 μM)
